In patent publication US11865098B1, “Methods and compositions for treating excessive sleepiness” (Axsome Malta Ltd., priority 2017, dated 2024):

System: patients with narcolepsy type 1 or type 2
Assay: MWT, 12-week phase 3 study in narcolepsy
Assay type: in vivo, human
Experimental: The MWT is an objective test used to measure how alert a subject is during the day. The test consists of four sleep trials with two hours in between the trials. The first trial is performed 1.5-3 hours after the subject's normal wake-up time. Sensors are placed on the head, face, and chin to detect when the subject is asleep and awake during the test. The subject sits quietly in bed with his or her back and head supported by a pillow and is asked to sit still and look straight ahead while trying to stay awake as long as possible. Each trial lasts 40 minutes or until the subject is asleep for 90 seconds. Between trials, the subject stays out of bed and occupies himself or herself to remain awake. Falling asleep in an average of less than eight minutes is considered abnormal. About 40-60% of subjects with normal sleep stay awake for the entire 40 minutes of all four trials.
The study was a 12-week, double-blind, randomized, placebo-controlled, parallel-group study. Patients were randomized (1:1:1:1) to receive placebo or APC 75, 150, or 300 mg; randomization was stratified by the presence or absence of cataplexy.
Key inclusion criteria included adults 18-75 years old, inclusive, with a diagnosis of narcolepsy type 1 or type 2 according to ICSD-3 (American Academy of Sleep Medicine. The International Classification of Sleep Disorders—Third Edition (ICSD-3). Darien, IL: American Academy of Sleep Medicine; 2014) or DSM-5 (American Psychiatric Association. Diagnostic and Statistical Manual of Mental Disorders Fifth Edition (DSM-5). Arlington, VA: American Psychiatric Association; 2013) criteria, baseline mean sleep latency <25 minutes on the first 4 trials of a 5-trial, 40-minute Maintenance of Wakefulness Test (MWT) and baseline Epworth Sleepiness Scale (ESS) (Johns, Sleep 14(6):540 (1991)) score ≥10, usual nightly total sleep time ≥6 hours, and body mass index between 18 and 45 kg/m^2.
Co-primary endpoints were change from baseline to week 12 in MWT mean sleep latency and ESS score. The key secondary endpoint was the percentage of patients who reported improvement on the Patient Global Impression of Change (PGI-C) (Guy, ECDEU assessment manual for psychopharmacology, revised. US Department of Health, Education, and Welfare publication (ADM 76-338). Rockville, MD: National Institute of Mental Health; 1976) at week 12. Other secondary and exploratory endpoints included changes on function and quality-of-life and changes in the number of cataplexy attacks per week. Safety evaluation included adverse events, laboratory tests, and vital signs.
Efficacy analyses were based on the modified intent-to-treat population (mITT), defined as all patients who were randomized, received at least 1 dose of study drug, and had baseline and at least 1 post-baseline evaluation of both MWT and ESS. MWT and ESS were analyzed using a mixed-effect repeated measures (MMRM) model. PGI-C was analyzed using a chi-square test. A fixed hierarchical testing procedure was used to correct for multiplicity, starting with the highest dose of APC for the co-primary endpoints and the key secondary endpoint; testing proceeded with each subsequent lower doses.

[1] = Combined JZP-110, Week 12, mITT

Q: Which “MWT mean sleep latency increase from baseline >=15 minutes, n subjects” value (300 mg, Week 1, mITT) does the source give for `NC(=O)OC[C@H](N)Cc1ccccc1` [JZP-110, (R)-2-amino-3-phenylpropyl carbamate] here?
A: 11

Q: And the “MWT mean sleep latency increase from baseline >=20 minutes, % of subjects” value (300 mg, Week 1, mITT)?
A: (32.0) %

Q: What about the “MWT mean sleep latency increase from baseline >=20 minutes, n subjects” value (300 mg, Week 1, mITT) of the same compound?
A: 8

Q: And the “MWT mean sleep latency increase from baseline >=25 minutes, % of subjects” value (300 mg, Week 1, mITT)?
A: (24.0) %

Q: And the “MWT mean sleep latency increase from baseline >=25 minutes, n subjects” value (300 mg, Week 1, mITT)?
A: 6

Q: And the “MWT mean sleep latency increase from baseline >=30 minutes, % of subjects” value (300 mg, Week 1, mITT)?
A: (20.0) %

Q: What about the “MWT mean sleep latency increase from baseline >=30 minutes, n subjects” value (300 mg, Week 1, mITT) of the same compound?
A: 5

Q: And the “MWT mean sleep latency increase from baseline >=5 minutes, % of subjects” value (300 mg, Week 4, mITT)?
A: (69.2) %

Q: What about the “MWT mean sleep latency increase from baseline >=5 minutes, n subjects” value (300 mg, Week 4, mITT) of the same compound?
A: 36

Q: What about the “MWT mean sleep latency increase from baseline >=10 minutes, % of subjects” value (300 mg, Week 4, mITT) of the same compound?
A: (53.8) %

Q: And the “MWT mean sleep latency increase from baseline >=10 minutes, n subjects” value (300 mg, Week 4, mITT)?
A: 28

Q: What about the “MWT mean sleep latency increase from baseline >=15 minutes, % of subjects” value (300 mg, Week 4, mITT) of the same compound?
A: (36.5) %

Q: What about the “MWT mean sleep latency increase from baseline >=15 minutes, n subjects” value (300 mg, Week 4, mITT) of the same compound?
A: 19

Q: What about the “MWT mean sleep latency increase from baseline >=20 minutes, % of subjects” value (300 mg, Week 4, mITT) of the same compound?
A: (25.0) %

Q: And the “MWT mean sleep latency increase from baseline >=20 minutes, n subjects” value (300 mg, Week 4, mITT)?
A: 13

Q: And the “MWT mean sleep latency increase from baseline >=25 minutes, % of subjects” value (300 mg, Week 4, mITT)?
A: (17.3) %

Q: What about the “MWT mean sleep latency increase from baseline >=25 minutes, n subjects” value (300 mg, Week 4, mITT) of the same compound?
A: 9

Q: And the “MWT mean sleep latency increase from baseline >=30 minutes, % of subjects” value (300 mg, Week 4, mITT)?
A: (13.5) %

Q: What about the “MWT mean sleep latency increase from baseline >=30 minutes, n subjects” value (300 mg, Week 4, mITT) of the same compound?
A: 7

Q: What about the “MWT mean sleep latency increase from baseline >=5 minutes, % of subjects” value (300 mg, Week 12, mITT) of the same compound?
A: (60.0) %

Q: And the “MWT mean sleep latency increase from baseline >=5 minutes, n subjects” value (300 mg, Week 12, mITT)?
A: 24

Q: And the “MWT mean sleep latency increase from baseline >=10 minutes, % of subjects” value (300 mg, Week 12, mITT)?
A: (50.0) %

Q: And the “MWT mean sleep latency increase from baseline >=10 minutes, n subjects” value (300 mg, Week 12, mITT)?
A: 20

Q: And the “MWT mean sleep latency increase from baseline >=15 minutes, % of subjects” value (300 mg, Week 12, mITT)?
A: (37.5) %

Q: What about the “MWT mean sleep latency increase from baseline >=15 minutes, n subjects” value (300 mg, Week 12, mITT) of the same compound?
A: 15

Q: What about the “MWT mean sleep latency increase from baseline >=20 minutes, % of subjects” value (300 mg, Week 12, mITT) of the same compound?
A: (27.5) %

Q: And the “MWT mean sleep latency increase from baseline >=20 minutes, n subjects” value (300 mg, Week 12, mITT)?
A: 11

Q: And the “MWT mean sleep latency increase from baseline >=25 minutes, % of subjects” value (300 mg, Week 12, mITT)?
A: (15.0) %

Q: What about the “MWT mean sleep latency increase from baseline >=25 minutes, n subjects” value (300 mg, Week 12, mITT) of the same compound?
A: 6

Q: What about the “MWT mean sleep latency increase from baseline >=30 minutes, % of subjects” value (300 mg, Week 12, mITT) of the same compound?
A: (7.5) %

Q: And the “MWT mean sleep latency increase from baseline >=30 minutes, n subjects” value (300 mg, Week 12, mITT)?
A: 3

Q: And the “MWT mean sleep latency relative to placebo” value (150 and 300 mg, week 12, mITT)?
A: significantly increased MWT mean sleep latency relative to placebo

Q: And the “MWT mean sleep latency increase from baseline >=5 minutes, % of subjects” value (Combined JZP-110, Week 1, mITT)?
A: (53.9) %

Q: And the “MWT mean sleep latency increase from baseline >=5 minutes, n subjects” value (Combined JZP-110, Week 1, mITT)?
A: 41

Q: And the “MWT mean sleep latency increase from baseline >=10 minutes, % of subjects” value (Combined JZP-110, Week 1, mITT)?
A: (42.1) %

Q: And the “MWT mean sleep latency increase from baseline >=10 minutes, n subjects” value (Combined JZP-110, Week 1, mITT)?
A: 32

Q: What about the “MWT mean sleep latency increase from baseline >=15 minutes, % of subjects” value (Combined JZP-110, Week 1, mITT) of the same compound?
A: (27.6) %

Q: What about the “MWT mean sleep latency increase from baseline >=15 minutes, n subjects” value (Combined JZP-110, Week 1, mITT) of the same compound?
A: 21

Q: What about the “MWT mean sleep latency increase from baseline >=20 minutes, % of subjects” value (Combined JZP-110, Week 1, mITT) of the same compound?
A: (17.1) %

Q: What about the “MWT mean sleep latency increase from baseline >=20 minutes, n subjects” value (Combined JZP-110, Week 1, mITT) of the same compound?
A: 13

Q: And the “MWT mean sleep latency increase from baseline >=25 minutes, % of subjects” value (Combined JZP-110, Week 1, mITT)?
A: (9.2) %

Q: What about the “MWT mean sleep latency increase from baseline >=25 minutes, n subjects” value (Combined JZP-110, Week 1, mITT) of the same compound?
A: 7

Q: What about the “MWT mean sleep latency increase from baseline >=30 minutes, % of subjects” value (Combined JZP-110, Week 1, mITT) of the same compound?
A: (6.6) %

Q: What about the “MWT mean sleep latency increase from baseline >=30 minutes, n subjects” value (Combined JZP-110, Week 1, mITT) of the same compound?
A: 5

Q: And the “MWT mean sleep latency increase from baseline >=5 minutes, % of subjects” value (Combined JZP-110, Week 4, mITT)?
A: (57.6) %

Q: And the “MWT mean sleep latency increase from baseline >=5 minutes, n subjects” value (Combined JZP-110, Week 4, mITT)?
A: 87

Q: And the “MWT mean sleep latency increase from baseline >=10 minutes, % of subjects” value (Combined JZP-110, Week 4, mITT)?
A: (40.4) %

Q: And the “MWT mean sleep latency increase from baseline >=10 minutes, n subjects” value (Combined JZP-110, Week 4, mITT)?
A: 61

Q: What about the “MWT mean sleep latency increase from baseline >=15 minutes, % of subjects” value (Combined JZP-110, Week 4, mITT) of the same compound?
A: (26.5) %

Q: And the “MWT mean sleep latency increase from baseline >=15 minutes, n subjects” value (Combined JZP-110, Week 4, mITT)?
A: 40

Q: What about the “MWT mean sleep latency increase from baseline >=20 minutes, % of subjects” value (Combined JZP-110, Week 4, mITT) of the same compound?
A: (15.9) %

Q: What about the “MWT mean sleep latency increase from baseline >=20 minutes, n subjects” value (Combined JZP-110, Week 4, mITT) of the same compound?
A: 24

Q: What about the “MWT mean sleep latency increase from baseline >=25 minutes, % of subjects” value (Combined JZP-110, Week 4, mITT) of the same compound?
A: (9.3) %

Q: What about the “MWT mean sleep latency increase from baseline >=25 minutes, n subjects” value (Combined JZP-110, Week 4, mITT) of the same compound?
A: 14

Q: And the “MWT mean sleep latency increase from baseline >=30 minutes, % of subjects” value (Combined JZP-110, Week 4, mITT)?
A: (4.6) %

Q: And the “MWT mean sleep latency increase from baseline >=30 minutes, n subjects” value (Combined JZP-110, Week 4, mITT)?
A: 7

Q: What about the “MWT mean sleep latency increase from baseline >=5 minutes, % of subjects” value [1] of the same compound?
A: (52.9) %

Q: What about the “MWT mean sleep latency increase from baseline >=5 minutes, n subjects” value [1] of the same compound?
A: 72

Q: What about the “MWT mean sleep latency increase from baseline >=10 minutes, % of subjects” value [1] of the same compound?
A: (39.0) %

Q: And the “MWT mean sleep latency increase from baseline >=10 minutes, n subjects” value [1]?
A: 53

Q: And the “MWT mean sleep latency increase from baseline >=15 minutes, % of subjects” value [1]?
A: (29.4) %

Q: And the “MWT mean sleep latency increase from baseline >=15 minutes, n subjects” value [1]?
A: 40

Q: What about the “MWT mean sleep latency increase from baseline >=20 minutes, % of subjects” value [1] of the same compound?
A: (17.6) %

Q: What about the “MWT mean sleep latency increase from baseline >=20 minutes, n subjects” value [1] of the same compound?
A: 24

Q: What about the “MWT mean sleep latency increase from baseline >=25 minutes, % of subjects” value [1] of the same compound?
A: (8.1) %

Q: What about the “MWT mean sleep latency increase from baseline >=25 minutes, n subjects” value [1] of the same compound?
A: 11

Q: What about the “MWT mean sleep latency increase from baseline >=30 minutes, % of subjects” value [1] of the same compound?
A: (2.9) %

Q: What about the “MWT mean sleep latency increase from baseline >=30 minutes, n subjects” value [1] of the same compound?
A: 4

Q: And the “MWT mean sleep latency, effect at week 1” value (all doses, as early as week 1)?
A: Statistically significant effects

Q: And the “Tolerance to the wake-promoting effects” value (over the 12 weeks of the study)?
A: no apparent tolerance to the wake-promoting effects
